The target of data set [1] is Cyclin-dependent kinase 2/cyclin E1 (Homo sapiens, UniProt P24941). Description: Inhibition of recombinant human N-terminal GST-tagged full-length CDK2/Flag-tagged cyclinE1 expressed in baculovirus expression system using eIF4E-binding protein-1 peptide as substrate incubated for 1 hr in presence of ATP by HTRF assay. (In general: TR-FRET usually uses a lanthanide donor and a delayed reading to cut background.)

Data set [2] in a line: Inhibition of CDK1/cyclin B (unknown origin) in presence of ATP. Also noted: species or system Homo sapiens.
Data set [3] is filed under the species Homo sapiens. Description: Selectivity ratio of IC50 for inhibition of CDK1/cyclin B (unknown origin) to IC50 for inhibition recombinant human N-terminal GST-tagged full-length CDK2/Flag-tagged cyclinE1 expressed in baculovirus expression system.
The species named for data set [4] is Homo sapiens. As to the kind of experiment: Selectivity ratio of IC50 for inhibition of CDK4/cyclin D1 (unknown origin) to IC50 for inhibition recombinant human N-terminal GST-tagged full-length CDK2/Flag-tagged cyclinE1 expressed in baculovirus expression system.
The species entered for data set [5] is Homo sapiens. As to the kind of experiment: Selectivity ratio of IC50 for inhibition of CDK6/cyclin D1 (unknown origin) to IC50 for inhibition recombinant human N-terminal GST-tagged full-length CDK2/Flag-tagged cyclinE1 expressed in baculovirus expression system.
For data set [6], the target named is Cyclin-dependent kinase 2 (Homo sapiens, UniProt P24941). As to the kind of experiment: Inhibition of CDK2 in human COV318 cells incubated for overnight in presence of human whole blood by HTRF assay. Type of data set: cell-based.
Data set [7] can be described thus: Intrinsic clearance in human liver microsomes at 1 uM measured upto 30 mins by LC/MS analysis. It is filed as ADME, Microsome. Conditions: read-out: CLH (converted). A general note: Liver microsomes are vesicles of endoplasmic reticulum, rich in cytochrome P450 enzymes.
Data set [8] is filed under the species Homo sapiens. Description: Selectivity ratio of IC50 for inhibition of CDK1 in human OVCAR3 cells to IC50 for inhibition of CDK2 in human COV318 cells. It is filed as cell-based.
Data set [9] addresses Cyclin-dependent kinase 1 (Homo sapiens, UniProt P06493). As to the kind of experiment: Inhibition of CDK1 in human OVCAR3 cells incubated for 30 mins in presence of pNPM T199 by western blot analysis. Type of data set: cell-based, OVCAR-3. (In western blotting, separated proteins are transferred to a membrane and probed.)
The species named for data set [10] is Homo sapiens. As to the kind of experiment: Selectivity ratio of IC50 for inhibition of CDK4 (unknown origin) to IC50 for inhibition recombinant human N-terminal GST-tagged full-length CDK2/Flag-tagged cyclinE1 expressed in baculovirus expression system. To be noted: tested as the 2H-labelled form.
Data set [11] is filed under the species Homo sapiens. As to the kind of experiment: Selectivity ratio of IC50 for inhibition of CDK1 (unknown origin) to IC50 for inhibition recombinant human N-terminal GST-tagged full-length CDK2/Flag-tagged cyclinE1 expressed in baculovirus expression system. To be noted: tested as the 2H-labelled form.
Data set [12] is filed under the species Homo sapiens. As to the kind of experiment: Selectivity ratio of IC50 for inhibition of CDK7 (unknown origin) to IC50 for inhibition recombinant human N-terminal GST-tagged full-length CDK2/Flag-tagged cyclinE1 expressed in baculovirus expression system. Conditions: tested as the 2H-labelled form.
The species entered for data set [13] is Homo sapiens. As to the kind of experiment: Selectivity ratio of IC50 for inhibition of CDK9 (unknown origin) to IC50 for inhibition recombinant human N-terminal GST-tagged full-length CDK2/Flag-tagged cyclinE1 expressed in baculovirus expression system. Conditions: tested as the 2H-labelled form.
The species named for data set [14] is Homo sapiens. Description: Selectivity ratio of IC50 for inhibition of CDK6 (unknown origin) to IC50 for inhibition recombinant human N-terminal GST-tagged full-length CDK2/Flag-tagged cyclinE1 expressed in baculovirus expression system. Conditions: tested as the 2H-labelled form.

The values below come from ChEMBL document CHEMBL5126669, “Discovery of 5,7-Dihydro-6H-pyrrolo[2,3-d]pyrimidin-6-ones as Highly Selective CDK2 Inhibitors” (ACS Med Chem Lett, 2022).

A word on the IC50: it is the concentration needed to halve the response being measured.

Chain of Cyclin-dependent kinase 1 (P06493 whole entry): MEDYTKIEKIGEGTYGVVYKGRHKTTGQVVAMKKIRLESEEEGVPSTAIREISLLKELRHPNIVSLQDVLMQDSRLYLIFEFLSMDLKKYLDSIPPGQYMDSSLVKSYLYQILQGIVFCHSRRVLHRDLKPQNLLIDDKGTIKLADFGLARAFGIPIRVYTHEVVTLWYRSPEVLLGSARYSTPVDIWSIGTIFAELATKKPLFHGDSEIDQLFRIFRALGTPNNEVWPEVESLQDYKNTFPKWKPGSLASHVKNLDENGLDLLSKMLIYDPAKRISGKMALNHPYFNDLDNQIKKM

`CS(=O)(=O)N1CCC(Nc2ncc3c(n2)N(CC(F)F)C(=O)C32CC2)CC1`: the IC50 in data set [1] worked out at 875 nM.

Turning to `CN1Cc2cnc(Nc3ccc(S(N)(=O)=O)cc3)nc2C(C)(C)C1=O`, the IC50 in data set [1] was 161 nM; in [2], above 5000 nM.

As to `C[C@@H]1CCC[C@H]1N1C(=O)C2(CC2)c2cnc(Nc3ccc(S(=O)(=O)NCCO)cc3)nc21` (relative stereo), the IC50 in data set [1] worked out at 1.8 nM; in [6] it was 770 nM. Also, the Ratio IC50 is 250 in the data set listed under Homo sapiens [3], 29 in the data set listed under Homo sapiens [4] and 28 in the data set filed under Homo sapiens [5]. Moreover, in [7], the predicted hepatic clearance at 1 µM is above 18.3 mL/min/kg.

As to `CS(=O)(=O)N1CCC(Nc2ncc3c(n2)N(C2CCCC2)C(=O)C32CCC2)CC1`, the results for the IC50 in [1] and in data set [2] were 236 nM and above 5000 nM, respectively.

In the case of `CS(=O)(=O)N1CCC(Nc2ncc3c(n2)N(c2ccccc2)C(=O)C32CC2)CC1`, in [1], the IC50 is 1610 nM.

As to `Cn1cc(S(=O)(=O)N2CCC(Nc3ncc4c(n3)N(C3CCCC3)C(=O)C43CC3)CC2)cn1`, the 50% inhibitory concentration (IC50) in data set [1] turned out to be 17 nM; in data set [2], 1280 nM. For the same compound, the Ratio IC50 in the data set filed under Homo sapiens [8] was found to be 75.

As to `Cc1nn(C)cc1-c1ccnc(Nc2ccc(S(=O)(=O)N3CCOCC3)cc2)n1`, in data set [1], the IC50 amounted to 431 nM.

Regarding `CCC1(C)C(=O)N(C2CCCC2)c2nc(NC3CCN(S(C)(=O)=O)CC3)ncc21` (stereo not given), the results for the IC50 in [1] and in data set [2] were 557 nM and above 5000 nM, respectively.

In the case of `C[C@H]1CCC[C@@H]1N1C(=O)C2(CC2)c2cnc(NC3CCN(S(C)(=O)=O)CC3)nc21` (mixture of isomers), the values for the IC50 in [1] and in data set [2] were 7 nM and 540 nM, respectively. Also, the Ratio IC50 in the data set listed under Homo sapiens [8] was determined as 77.

With `CNS(=O)(=O)c1ccc(Nc2ncc3c(n2)N([C@H]2CCC[C@@H]2C)C(=O)C32CC2)cc1` (relative stereo), the results for the IC50 in data set [1] and in data set [6] were 0.33 nM and 230 nM, respectively. The Ratio IC50 was determined as 890 in the data set listed under Homo sapiens [3], 33 in the data set listed under Homo sapiens [4] and 48 in the data set filed under Homo sapiens [5]. In data set [7], the predicted hepatic clearance at 1 µM is 18.3 mL/min/kg.

With `CS(=O)(=O)N1CCC(Nc2ncc3c(n2)N(C2CCCC2)C(=O)C32CC2)CC1`, the IC50 in [1] is 102 nM; in data set [2], above 5000 nM; in data set [9], above 5000 nM.

As for `CS(=O)(=O)N1CCC(Nc2ncc3c(n2)N(C2CCCCC2)C(=O)C32CC2)CC1`, the IC50 is 82 nM in [1] and above 5000 nM in [2].

For `CC1(C)Cc2cnc(Nc3ccc(S(N)(=O)=O)cc3)nc2N(C2CCCC2)C1=O`, the half-inhibitory concentration (IC50) in data set [1] came out at 5 nM; in [2], 170 nM.

Take `Cc1nn2cnc3[nH]ccc3c2c1C1CCCCC1`: the IC50 in [1] worked out at 2800 nM.

`CNS(=O)(=O)c1ccc(Nc2ncc3c(n2)N(c2cc(F)ccc2Cl)C(=O)C32CC2)cc1`: the values for the IC50 in [1] and in data set [6] were 0.62 nM and 460 nM, respectively. Besides, the Ratio IC50 was found to be 1900 in the data set filed under Homo sapiens [3], 58 in the data set filed under Homo sapiens [4] and 120 in the data set listed under Homo sapiens [5]. The predicted hepatic clearance at 1 µM in data set [7] was 15 mL/min/kg.

In the case of `CS(=O)(=O)N1CCC(Nc2ncc3c(n2)N(C2CCOCC2)C(=O)C32CC2)CC1`, the IC50 in data set [1] came out at 2200 nM.

Consider `CNS(=O)(=O)c1ccc(Nc2ncc3c(n2)N([C@@H]2CCC[C@@H](O)C2)C(=O)C32CC2)cc1`, for which the IC50 in data set [1] was determined as 0.25 nM; in data set [6] it was 670 nM. Further, the Ratio IC50 in the data set listed under Homo sapiens [3] turned out to be 1200; in the data set filed under Homo sapiens [4] it was 1000; in the data set listed under Homo sapiens [5] it was 230; in the data set listed under Homo sapiens [10], 770; in the data set listed under Homo sapiens [11] it was 1200; in the data set listed under Homo sapiens [12] it was 17000. Also, the values for the Ratio IC50 in the data set listed under Homo sapiens [13] and in the data set filed under Homo sapiens [14] were 8200 and 230, respectively. In addition, in [7], the predicted hepatic clearance at 1 µM is 13.3 mL/min/kg.

Regarding `C[C@@H]1CCC[C@H]1N1C(=O)C2(CC2)c2cnc(Nc3ccc(S(=O)(=O)N[C@@H]4CCCN(C)C4)cc3)nc21`, the IC50 in data set [1] was determined as 0.32 nM; in data set [6] it was 44 nM. In addition, the Ratio IC50 in the data set filed under Homo sapiens [3] is 100; in the data set listed under Homo sapiens [4], 8; in the data set filed under Homo sapiens [5], 9. For the same compound, in data set [7], the predicted hepatic clearance at 1 µM was above 18.3 mL/min/kg.

Turning to `CNS(=O)(=O)c1ccc(Nc2ncc3c(n2)N([C@@H](C)C2CC2)C(=O)C32CC2)cc1`, the IC50 in data set [1] amounted to 1.6 nM; in [6], 460 nM. Further, the Ratio IC50 in the data set listed under Homo sapiens [3] was found to be 480; in the data set filed under Homo sapiens [4], 29; in the data set listed under Homo sapiens [5], 24. In addition, in data set [7], the predicted hepatic clearance at 1 µM was 11.7 mL/min/kg.

Consider `CC[C@@H](C(F)F)N1C(=O)C2(CC2)c2cnc(NC3CCN(S(C)(=O)=O)CC3)nc21`, for which the IC50 was 23 nM in [1] and 1690 nM in data set [2]. In addition, in the data set listed under Homo sapiens [8], the Ratio IC50 was 74.

Turning to `CC1(C)C(=O)N(C2CCCC2)c2nc(NC3CCN(S(C)(=O)=O)CC3)ncc21`, the half-maximal inhibitory concentration (IC50) in data set [1] is 87 nM; in data set [2], above 5000 nM.
